Data published in article PMC12839014, “Machine Learning-Based Virtual Screening for the Identification of Novel CDK-9 Inhibitors” (Biomolecules, 2025).
Where two headings read alike, the source gives them in different places.

What was measured:
CDK9/cyclin T1 = biological target: T1, CDK9/cyclin T1 (Homo sapiens, UniProt P50750); experiment: ADAPTA kinase assay (TR-FRET), CDK9 inhibition; type: biochemical; settings: for IC50: CDK9 inhibitory activity
T1 construct: purchased Thermo Fisher Scientific, Madison, WI, USA
T1 sequence (P50750 whole entry): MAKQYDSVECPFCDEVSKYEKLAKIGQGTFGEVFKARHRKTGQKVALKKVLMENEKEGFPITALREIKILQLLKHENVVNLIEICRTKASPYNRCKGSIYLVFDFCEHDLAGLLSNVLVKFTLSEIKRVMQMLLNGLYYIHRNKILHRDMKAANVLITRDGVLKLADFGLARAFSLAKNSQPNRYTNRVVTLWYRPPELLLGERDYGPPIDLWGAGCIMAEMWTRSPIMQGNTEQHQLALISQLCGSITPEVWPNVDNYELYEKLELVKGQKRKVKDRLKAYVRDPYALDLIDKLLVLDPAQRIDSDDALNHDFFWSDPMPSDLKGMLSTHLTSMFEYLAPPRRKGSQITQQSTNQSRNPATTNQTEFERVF
T1 sequence (O60563 whole entry partner): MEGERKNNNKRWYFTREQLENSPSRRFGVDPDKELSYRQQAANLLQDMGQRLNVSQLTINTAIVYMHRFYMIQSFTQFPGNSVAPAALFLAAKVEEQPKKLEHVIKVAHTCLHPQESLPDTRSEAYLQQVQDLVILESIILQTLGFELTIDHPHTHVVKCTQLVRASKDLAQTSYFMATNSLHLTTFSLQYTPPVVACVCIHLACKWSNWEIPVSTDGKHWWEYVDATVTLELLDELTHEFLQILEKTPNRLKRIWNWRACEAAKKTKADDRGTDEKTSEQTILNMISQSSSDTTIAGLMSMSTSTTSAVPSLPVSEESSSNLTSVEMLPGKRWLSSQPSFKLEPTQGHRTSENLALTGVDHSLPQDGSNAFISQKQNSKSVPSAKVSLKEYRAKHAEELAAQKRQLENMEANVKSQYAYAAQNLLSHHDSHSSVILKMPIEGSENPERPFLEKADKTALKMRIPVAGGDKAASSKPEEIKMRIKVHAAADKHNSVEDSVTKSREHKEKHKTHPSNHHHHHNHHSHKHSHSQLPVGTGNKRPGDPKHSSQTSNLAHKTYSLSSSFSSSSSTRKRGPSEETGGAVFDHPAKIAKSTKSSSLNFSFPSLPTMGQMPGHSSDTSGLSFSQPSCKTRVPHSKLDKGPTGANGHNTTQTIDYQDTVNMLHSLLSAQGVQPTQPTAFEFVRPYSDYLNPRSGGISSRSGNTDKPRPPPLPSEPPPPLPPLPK
Protocol: The inhibitory activity of the compounds identified by the VS was evaluated against CDK9/cyclin T1 using the fluorescence-based ADAPTA kinase assay (Thermo Fisher Scientific, Madison, WI, USA). The assay quantifies ADP generated during the kinase reaction through a competitive immunoassay employing a TR-FRET detection system. In the presence of an inhibitor, ADP formation by the kinase is reduced, leading to preservation of the antibody–tracer complex and a corresponding increase in the TR-FRET signal. Inhibitory potency was expressed as IC50 values, determined from logistic dose–response curves with 10 concentration points, each representing the average of two independent experiments.

MCF-7 cells = experiment: Cell viability assay (SRB), MCF-7; type: cell-based; settings: 72 h; for cell viability (antiproliferative effect): MCF-7, single agent, SRB
Protocol: (§1) HeLa, MCF-7, and MDA-MB-231 cells were seeded in triplicate into 96-well plates at densities of 1500, 3500, and 3000 cells per well, respectively, and allowed to adhere for 24 h. After 72 h of incubation, cells were fixed with 10% (v/v) trichloroacetic acid (TCA) and subsequently stained with 0.4% (w/v) sulforhodamine B (SRB) dissolved in 1% (v/v) acetic acid. Cell viability was quantified and expressed as a percentage relative to untreated control cells, which were normalized to 100%. Data represent the mean ± standard deviation (SD) from three independent experiments (n = 3). Statistical significance was determined using one-way ANOVA or Student’s t-test, followed by appropriate multiple-comparison post hoc tests to evaluate differences between experimental groups.

HeLa cells = experiment: Cell viability assay (SRB), HeLa; type: cell-based; settings: 72 h; for cell viability (antiproliferative effect): single agent, SRB
Protocol: as §1

MDA-MB-231 cells = experiment: Cell viability assay (SRB), MDA-MB-231; type: cell-based; settings: 72 h; for cell viability (antiproliferative effect): MDA-MB-231, single agent, SRB
Protocol: as §1

[1] = system: γH2AX Ser139 foci in HeLa cells; experiment: Immunofluorescence analysis of γ-H2AX foci; type: cell-based; settings: 1 h pretreatment with compound 1, then 2 h CPT, combination vs CPT alone
Protocol: (§2) HeLa cells were fixed in 4% paraformaldehyde and subsequently permeabilized with 0.2% Triton X-100. Blocking was performed with 1% bovine serum albumin (BSA) for 10 min at room temperature. Cells were then incubated for 1 h at RT with primary antibodies targeting: γH2AX Ser139 (1:200, ab2893, Abcam, Cambridge, UK) or pRPA32 S4/8 (1:200, A300-245A, Bethyl Laboratories, Montgomery, TX, USA). Corresponding secondary antibody conjugated with AlexaFluor 647 donkey anti-rabbit IgG (H + L) was applied. Samples were mounted using ProLong™ Gold Antifade Mountant with DAPI (Thermo Fisher Scientific). High-resolution immunofluorescence imaging was performed on a Zeiss LSM 900 Airyscan2 confocal microscope equipped with a Plan-Apochromat 63×/1.4 NA oil immersion objective. Image acquisition and processing utilized Zen 3.9 software Zeiss, Jena, Germany). Quantification of fluorescent foci per nucleus was conducted using Fiji (ImageJ) software, version 2.14.0/1.54f.
Figure S3. […] Thirty cells were evaluated per condition. Data are expressed as the mean ± standard deviation (SD) from three separate experiments. Statistical signiﬁcance was determined using Welch’s corrected Student’s t-test to account for potential variance diﬀerences between samples. **** p < 0.0001. […]

[2] = system: HeLa cells transfected with siCTR or siCDK9; experiment: Cell viability in HeLa cells with siRNA-mediated CDK9 knockdown; type: cell-based; settings: 100 nM siCDK9 vs siCTR, 72 h treatment
Protocol: as §1
Consistently, when CDK9 is depleted, the overall impact of compound 1 is reduced.
Figure S2. HeLa cells were transfected with 100 nM of siCTR or siCDK9. After 24 hours of incubation, the cells were plated for the indicated treatment time points and incubated for an additional 24 hours, followed by treatment with the speciﬁed drug concentrations for another 72 hours. Results are presented as the mean ± SD from three independent experiments. *p< […], **p< 0.01, *** p < 0.001 and **** p < 0.0001.
(1 picture or pasted object on this page, not shown here)

[3] = system: pRPA32 S4/8 in HeLa cells; experiment: Immunofluorescence analysis of pRPA32 S4/8 (HR activity); type: cell-based; settings: 1 h pretreatment with compound 1 or DMSO, then 2 h CPT
Protocol: as §2
Figure S4. A) HeLa cells were pre-treated with compound 1 (reported as Cmp 1) or DMSO for one hour, followed by incubation with CPT. Thirty cells per condition were analyzed from three independent experiments, with results reported as the standard deviation (SD). Statistical analysis was performed using Welch’s corrected Student’s t-test to account for heteroscedasticity in the data. […]

[4] = 10 concentration points, average of two independent experiments, read-out: Experimental IC50

SMILES: COc1cc2c(c3oc(=O)c(CCC(=O)NC4C=CS(=O)(=O)C4)c(C)c13)CCC(C)(C)O2 (centres unmarked) [Compound 5]
- IC50 (CDK9/cyclin T1; [4]): 107 µM

SMILES: CC[C@@]1(O)C(=O)OCc2c1cc1n(c2=O)Cc2cc3ccccc3nc2-1 [CPT, Camptothecin, reference compound]
- cell viability (antiproliferative effect) (MCF-7 cells): detectable cytotoxic effect
- cell viability (antiproliferative effect) (HeLa cells): detectable cytotoxic effect
- cell viability (antiproliferative effect) (MDA-MB-231 cells): detectable cytotoxic effect

SMILES: CCC(Sc1nc2sc(C(=O)N(C)C)c(C)c2c(=O)n1CCc1ccccc1)C(=O)NC1CCCCC1 (centres unmarked) [Compound 13]
- IC50 (CDK9/cyclin T1; [4]): > 133 µM

SMILES: Cc1cc(NC2CCN(c3ncccc3F)C2)nc(C)n1 (centres unmarked) [Compound 10]
- IC50 (CDK9/cyclin T1; [4]): > 133 µM

SMILES: Cn1nc(C(=O)N2CCC(c3cc(O)nc(N4CCCC4)n3)C2)c2ccccc21 (centres unmarked) [Compound 9]
- IC50 (CDK9/cyclin T1; [4]): > 133 µM

SMILES: CCOC(=O)c1sc(NC(=S)Nc2c(C)n(C)n(-c3ccccc3)c2=O)c(C(=O)OCC)c1C [Compound 2]
- cell viability (antiproliferative effect) (MCF-7 cells): less effective at comparable concentrations
- cell viability (antiproliferative effect) (HeLa cells): less effective at comparable concentrations
- cell viability (antiproliferative effect) (MDA-MB-231 cells): less effective at comparable concentrations
- IC50 (CDK9/cyclin T1; [4]): 16.8 µM
- IC50 (CDK9/cyclin T1; read-out: IC50): < 50 µM

SMILES: COC(=O)c1c(NC(=O)c2nn3c(C(F)(F)F)cc(-c4ccc(Br)cc4)nc3c2Cl)sc2c1CCCC2 [Compound 14]
- IC50 (CDK9/cyclin T1; [4]): > 133 µM

SMILES: Cc1nn(-c2ccc(F)cc2)c2nc(CCC(C)C)nc(N3CCN(C(=O)C4CC4c4ccccc4)CC3)c12 (centres unmarked) [Compound 4]
- IC50 (CDK9/cyclin T1; [4]): 67.2 µM

SMILES: COc1ccc(F)cc1-c1cc(N2CCN(S(=O)(=O)Cc3ccccc3)CC2)ncn1 [Compound 3]
- IC50 (CDK9/cyclin T1; [4]): 28.6 µM
- IC50 (CDK9/cyclin T1; read-out: IC50): < 50 µM

SMILES: Nc1c2c(-c3ccccc3Cl)nc(N3CCCC3)nc2nn1-c1ccc(F)cc1 [Compound 12]
- IC50 (CDK9/cyclin T1; [4]): > 133 µM

SMILES: O=S(=O)(N1CCCC1)N1CCN(c2ncnc3scc(-c4ccc(F)cc4)c23)CC1 [Compound 6]
- IC50 (CDK9/cyclin T1; [4]): 133 µM

SMILES: COc1ccccc1-c1ccnc(NC2CC3CCC(C2)N3C)n1 (centres unmarked) [Compound 1]
- DNA damage response (γ-H2AX foci) [1]: stronger DNA damage response
- cell viability, combination with CPT (MCF-7 cells; MCF-7, CPT fixed 5 nM + compound 1 1.85–30 µM): additive interaction
- cell viability, combination with CPT (MCF-7 cells; MCF-7, compound 1 fixed 7.5 µM + CPT 1.25–20 nM): potentiated the cytotoxic activity of CPT
- cell viability (antiproliferative effect) (MCF-7 cells): stronger antiproliferative activity
- survival of CDK9-depleted cells vs control cells [2]: higher survival
- cell viability, combination with CPT (HeLa cells; CPT fixed 5 nM + compound 1 1.85–30 µM): additive interaction
- cell viability, combination with CPT (HeLa cells; compound 1 fixed 7.5 µM + CPT 1.25–20 nM): potentiated the cytotoxic activity of CPT
- cell viability (antiproliferative effect) (HeLa cells): stronger antiproliferative activity
- pRPA32 S4/8 signal (HR activity) [3]: no significant changes in pRPA32 signal
- cell viability, combination with CPT (MDA-MB-231 cells; MDA-MB-231, CPT fixed 5 nM + compound 1 1.85–30 µM): additive interaction
- cell viability, combination with CPT (MDA-MB-231 cells; MDA-MB-231, compound 1 fixed 7.5 µM + CPT 1.25–20 nM): potentiated the cytotoxic activity of CPT
- cell viability (antiproliferative effect) (MDA-MB-231 cells): stronger antiproliferative activity
- IC50 (CDK9/cyclin T1; [4]): 3.51 µM
- IC50 (CDK9/cyclin T1; read-out: IC50): < 50 µM
- potency of compound 1 relative to compound 2 (CDK9/cyclin T1; in vitro enzymatic assays): five-fold

SMILES: Cc1cc(N2CCC3(NC(=O)c4cccc(C(C)C)n4)CCCC23)nc(CO)n1 (centres unmarked) [Compound 8]
- IC50 (CDK9/cyclin T1; [4]): > 133 µM

SMILES: COc1ccc(OC)c(-c2cc(C(=O)NCC3CCN(c4ncccn4)CC3)n(C)n2)c1 [Compound 11]
- IC50 (CDK9/cyclin T1; [4]): > 133 µM
